Results as given in US20250195468A1, “METHODS AND COMPOSITIONS FOR TREATING COLORECTAL CANCER WITH INDOXYL SULFATE” (National Institute of Immunology, priority 2023, published 2025).

System: Balb/c mice
Experiment: Animal study: effect on normal colonic cells (organ length, body weight, histology, symptoms)
Conditions: control groups (negative / positive control), 12 weeks
Procedure: Wild-type Balb/c mice were obtained from Jackson Laboratory, USA, and housed in plastic cages with free access to water and food. The mice were randomly assigned to five test groups, which included three control groups: vehicle control, negative control (100 mM sodium propionate), and positive control (AOM (Azoxymethane)/DSS). Additionally, there were two experimental groups receiving 100 mM of indoxyl sulfate, one via intraperitoneal (IP) administration and the other via intrarectal (IR) administration. Each group consisted of six mice. In the AOM/DSS group, AOM was injected intraperitoneally at a dosage of 10 mg/kg bodyweight. The AOM was injected only once on the 1st day of experiment. The positive control mice received 2% DSS for 7 days in the first week, fourth week, and seventh week. […]
The colon was collected from each mouse for subsequent histology studies. […] Various parameters, including tumor localization (proximal or distal bowel, rectum, cecum, ileocecal valve), tumor number, cancer stage (dysplasia/adenoma or adenocarcinoma, determined by infiltration into the muscular mucosa), immune cell infiltration, and inflammation, were assessed. Bowel inflammation was evaluated by observing immune cell infiltration and the presence or absence of mucous membranes using a 10× objective. […]

Compound: CCC(=O)[O-].[Na+] [Propionate, sodium propionate]
- Length of large intestine (mean ± SD): 9.98 ± 0.67 cm
- Length of spleen (mean ± SD): 1.5 ± 0.08 cm
